In US20070004763A1, “AMINOQUINOLINE AND AMINOQUINAZOLINE KINASE MODULATORS” (priority 2005, published 2007) one finds IC50 data, which are given here for 28 compounds.

Molecules are shown by their SMILES.

The assay concerns the target T1, TrkB (Homo sapiens, UniProt Q16620).
T1 construct: purchased Upstate 14-507M
As to the kind of experiment: Trk B Fluorescence Polarization Kinase Assay. Particulars: 150 uM ATP, 50 nM TrkB; uncertainty ±10%. It is filed as biochemical. Here is the method: The compounds of the present invention are also specific inhibitors of TrkB. Selection of preferred compounds of Formula I for use as TrkB inhibitors was performed in the following manner. The TrkB assay utilized the fluorescein-labeled phosphopeptide and the anti-phosphotyrosine antibody included in the Panvera Phospho-Tyrosine Kinase Kit (Green) supplied by Invitrogen. When TrkB phosphorylated poly Glu4Tyr, the fluorescein-labeled phosphopeptide was displaced from the anti-phosphotyrosine antibody by the phosphorylated poly Glu4Tyr, thus decreasing the FP value. The TrkB kinase reaction was incubated at room temperature for 30 minutes under the following conditions: 50 nM TrkB (Upstate, catalog #14-507M), 20 ug/mL poly Glu4Tyr, 150 uM ATP, 5 mM MgCl2, 1% compound in DMSO. The kinase reaction was stopped with the addition of EDTA. The fluorescein-labeled phosphopeptide and the anti-phosphotyrosine antibody were added and incubated for 30 minutes at room temperature. Data points were an average of triplicate samples. Inhibition and IC50 data analysis were done with GraphPad Prism using a non-linear regression fit with a multiparamater, sigmoidal dose-response (variable slope) equation.
(In fluorescence polarisation assays a small probe gives low polarisation when free and higher when bound to something large.)

T1 sequence (Q16620 526-822 limits assumed): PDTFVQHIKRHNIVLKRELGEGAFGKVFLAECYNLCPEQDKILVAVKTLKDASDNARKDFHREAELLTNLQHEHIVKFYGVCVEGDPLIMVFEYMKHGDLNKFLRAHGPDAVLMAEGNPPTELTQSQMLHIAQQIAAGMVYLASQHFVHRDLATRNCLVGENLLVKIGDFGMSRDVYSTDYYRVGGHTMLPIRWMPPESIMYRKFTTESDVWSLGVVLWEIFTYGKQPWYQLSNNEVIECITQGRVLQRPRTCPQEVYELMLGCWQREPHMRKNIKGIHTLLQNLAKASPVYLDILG

A word on the IC50: it is the concentration needed to halve the response being measured. Compound `COc1cc2ncnc(N3CCC(OC(=O)Nc4ccc(C(C)C)cc4)CC3)c2cc1OC` [Compound 1, (4-Isopropyl-phenyl)-carbamic acid 1-(6,7-dimethoxy-quinazolin-4-yl)-piperidin-4-yl ester] came in with an IC50 of 5.72 µM.

With `COc1cc2ncnc(N3CCC(OC(=O)Nc4ccc(C(C)C)cc4)C3)c2cc1OC` (stereo not shown) [Compound 2, (4-Isopropyl-phenyl)-carbamic acid 1-(6,7-dimethoxy-quinazolin-4-yl)-pyrrolidin-3-yl ester], the 50% inhibitory concentration (IC50) was found to be 3.7 µM.

`COc1cc2ncnc(N3CCC(OC(=O)Nc4ccc(OC(C)C)cc4)CC3)c2cc1OC` [Compound 3, (4-Isopropoxy-phenyl)-carbamic acid 1-(6,7-dimethoxy-quinazolin-4-yl)-piperidin-4-yl ester] gave an IC50 of 5.8 µM.

In the case of `COc1cc2ncnc(N3CCCC(COC(=O)Nc4ccc(C(C)C)cc4)C3)c2cc1OC` (stereo not shown) [Compound 4], the IC50 came out at 8.4 µM.

In turn, `COc1cc2ncnc(N3CCC(CC(=O)Nc4ccc(C(C)C)cc4)CC3)c2cc1OC` [Compound 5, 2-[1-(6,7-Dimethoxy-quinazolin-4-yl)-piperidin-4-yl]-N-(4-isopropyl-phenyl)-acetamide] registered an IC50 of 2.4 µM.

`COc1cc2ncnc(N3CCC(CC(=O)Nc4ccc(C(C)C)cc4)C3)c2cc1OC` (stereo not shown) [Compound 6, 2-[11-(6,7-Dimethoxy-quinazolin-4-yl)-pyrrolidin-3-yl]-N-(4-isopropyl-phenyl)-acetamide]: it took 0.1 µM to reach half-maximal inhibition (IC50). Against the preceding compound, the IC50 is about 24-fold lower.

The compound `COc1cc2ncnc(N3CCC(NC(=O)Nc4ccc(OC(C)C)cc4)C3)c2cc1OC` (stereo not shown) [Compound 8, 1-[1-(6,7-Dimethoxy-quinazolin-4-yl)-pyrrolidin-3-yl]-3-(4-isopropoxy-phenyl)-urea] gave an IC50 of 3.65 µM.

`COc1cc2ncnc(N3CCCC3COC(=O)Nc3ccc(C(C)C)cc3)c2cc1OC` (stereo not shown) [Compound 9] registered an IC50 of 0.2 µM.

For `CC(C)c1ccc(NC(=O)OC2CCN(c3ccnc4ccccc34)CC2)cc1` [Compound 10], the midpoint of inhibition, the IC50, lay at 6.5 µM.

`COc1cc2ncnc(N3CCC(OC(=O)Nc4ccc(OC5CCC5)nc4)CC3)c2cc1OC` [Compound 11, (6-Cyclobutoxy-pyridin-3-yl)-carbamic acid 1-(6,7-dimethoxy-quinazolin-4-yl)-piperidin-4-yl ester] came in with an IC50 of 8.6 µM. The IC50 values of the last two compounds are within 1.5-fold of each other.

As for `COc1cc2ncnc(N3CCC(OC(=O)Nc4ccc(OC5CCC5)nc4)C3)c2cc1OC` (stereo not shown) [Compound 12, (6-Cyclobutoxy-pyridin-3-yl)-carbamic acid 1-(6,7-dimethoxy-quinazolin-4-yl)-pyrrolidin-3-yl ester], the IC50 is 21.7 µM. This IC50 lies about 2.5-fold higher than the previous one.

For `COc1cc2ncnc(N3CCC(C(=O)Nc4ccc(C(C)C)cc4)CC3)c2cc1OC` [Compound 13, 1-(6,7-Dimethoxy-quinazolin-4-yl)-piperidine-4-carboxylic acid (4-isopropyl-phenyl)-amide], half-maximal inhibition (IC50) required 0.16 µM.

`CC(C)c1ccc(NC(=O)OC2CCN(c3ncnc4ccc(C#CCO)cc34)C2)cc1` (stereo not shown) [Compound 14, (4-Isopropyl-phenyl)-carbamic acid 1-[6-(3-hydroxy-prop-1-ynyl)-quinazolin-4-yl]-pyrrolidin-3-yl ester] had an IC50 of 0.4 µM.

As to `COc1cc2ncnc(N3CCC(OC(=O)Nc4ccc(OC(C)C)cc4)C3)c2cc1OC` (stereo not shown) [Compound 15, (4-Isopropoxy-phenyl)-carbamic acid 1-(6,7-dimethoxy-quinazolin-4-yl)-pyrrolidin-3-yl ester], the half-inhibitory concentration (IC50) stood at 12.5 µM.

In turn, `CC(C)c1ccc(NC(=O)NC2CCN(c3ncnc4ccccc34)C2)cc1` (stereo not shown) [Compound 16, 1-(4-Isopropyl-phenyl)-3-(1-quinazolin-4-yl-pyrrolidin-3-yl) urea] had an IC50 of 2.4 µM.

In turn, `CCN(CC)CC#Cc1ccc2ncnc(N3CCC(OC(=O)Nc4ccc(C(C)C)cc4)C3)c2c1` (stereo not shown) [Compound 17, (4-Isopropyl-phenyl)-3-carbamic acid 1-[6-(3-diethylamino-prop-1-ynyl)-quinazolin-4-yl]-pyrrolidin-3-yl ester] registered an IC50 of 3.6 µM.

The compound `COc1cc2ncnc(N3CCC(CNC(=O)Nc4ccc(C(C)C)cc4)CC3)c2cc1OC` [Compound 18, 1-[1-(6,7-Dimethoxy-quinazolin-4-yl)-piperidin-4-ylmethyl]-3-(4-isopropyl-phenyl)-urea] displayed an IC50 of 0.5 µM.

On to `CC(C)c1ccc(NC(=O)OC2CCN(c3ncnc4ccc(I)cc34)C2)cc1` (stereo not shown) [Compound 20, (4-Isopropyl-phenyl)-carbamic acid 1-(6-iodo-quinazolin-4-yl)-pyrrolidin-3-yl ester], for which the IC50 is 13.1 µM.

`COc1cc2ncnc(N3CCC(NC(=O)Cc4ccc(C(C)C)cc4)CC3)c2cc1OC` [Compound 21, N-[1-(6,7-Dimethoxy-quinazolin-4-yl)-piperidin-4-yl]-2-(4-isopropyl-phenyl)-acetamide] returned an IC50 of 11.2 µM.

As to `COc1cc2ncnc(N3CCC(COC(=O)Nc4ccc(C(C)C)cc4)CC3)c2cc1OC` [Compound 22, (4-Isopropyl-phenyl)-carbamic acid 1-(6,7-dimethoxy-quinazolin-4-yl)-piperidin-4-ylmethyl ester], the IC50 turned out to be 0.8 µM.

In the case of `COc1cc2ncnc(N3CCC(C(=O)Nc4ccc(OC(C)C)cc4)CC3)c2cc1OC` [Compound 23, 1-(6,7-Dimethoxy-quinazolin-4-yl)-piperidine-4-carboxylic acid (4-isopropoxy-phenyl)-amide], the IC50 was 0.55 µM.

As to `CC(C)c1ccc(NC(=O)OC2CCN(c3ncnc4ccccc34)C2)cc1` (stereo not shown) [Compound 24, (4-Isopropyl-phenyl)-carbamic acid 1-quinazolin-4-yl-pyrrolidin-3-yl ester], half-maximal inhibition (IC50) required 5.5 µM.

The compound `COc1cc2ncc(C#N)c(N3CCC(NC(=O)Nc4ccc(C(C)C)cc4)C3)c2cc1OC` (stereo not shown) [Compound 26, 1-[1-(3-Cyano-6,7-dimethoxy-quinolin-4-yl)-pyrrolidin-3-yl]-3-(4-isopropyl-phenyl)-urea] had an IC50 of 10.9 µM.

As for `CC(C)c1ccc(NC(=O)NC2CCN(c3ccnc4ccccc34)C2)cc1` (stereo not shown) [Compound 27, (4-Isopropyl-phenyl)-3-(1-quinolin-4-yl)-pyrrolidin-3-yl-urea], the IC50 is 7.7 µM.

For the compound `COc1cc2ncnc(N3CCCC(NC(=O)Nc4ccc(C(C)C)cc4)C3)c2cc1OC` (stereo not shown) [Compound 28, 1-[1-(6,7-Dimethoxy-quinazolin-4-yl)-piperidin-3-yl]-3-(4-isopropyl-phenyl)-urea], the IC50 worked out at 0.3 µM. Against the preceding compound, the IC50 is about 26-fold lower.

`COc1cc2ncc(C#N)c(N3CCC(NC(=O)Nc4ccc(OC(C)C)cc4)C3)c2cc1OC` (stereo not shown) [Compound 29, 1-[1-(3-Cyano-6,7-dimethoxy-quinolin-4-yl)-pyrrolidin-3-yl]-3-(4-isopropoxy-phenyl)-urea] registered an IC50 of 10.3 µM. This IC50 lies about 34-fold higher than the previous one.

Take `COc1cc2ncnc(N3CCCC(OC(=O)Nc4ccc(C(C)C)cc4)C3)c2cc1OC` (stereo not shown) [Compound 31, (4-Isopropyl-phenyl)-carbamic acid 1-[1-(6,7-dimethoxy-quinazolin-4-yl)-piperidin-3-yl]ester]: the concentration for half-maximal inhibition (IC50) was determined as 0.2 µM. Against the preceding compound, the IC50 is about 52-fold lower.

`COc1cc2ncc(C#N)c(N3CCC(OC(=O)Nc4ccc(OC(C)C)cc4)C3)c2cc1OC` (stereo not shown) [Compound 32, (4-Isopropoxy-phenyl)-carbamic acid 1-(3-cyano-6,7-dimethoxy-quinolin-4-yl)-pyrrolidin-3-yl ester] returned an IC50 of 5.3 µM. Against the preceding compound, the IC50 is about 26-fold higher.
